Results on one molecule are retold here after patent publication EP3884963A1, “NAPROXEN/DEXAMETHASONE-BASED NANOPARTICLES” (Consejo Superior de Investigaciones Científicas (CSIC), priority 2020, dated 2021).

SMILES strings stand for the structures.

The test system of the data set is RAW264.7 macrophages. Description: In vitro viability assay of NPs (AlamarBlue). The settings on record: RAW264.7, 24 h, all concentrations tested (NPs 0.011-0.25 mg/ml; free Dx at the concentration encapsulated); % respect to the control. The class given is cell-based, murine. The method, then:
The RAW264.7 (murine macrophages) cell line was purchased from Sigma-Aldrich. RAW264.7 cells are an in vitro model useful to test the potential anti-inflammatory activity of new drugs. Cells were maintained over permissive conditions in high-glucose Dulbecco's modified Eagle's medium (DMEM; Sigma, Saint Louis, MO, USA) supplemented with 10% fetal bovine serum (FBS; Gibco, BRL), 2% L-Glutamine (Sigma, Saint Louis, MO, USA) and Penicillin-G (Sigma, Saint Louis, MO, USA) at 37 °C in a humidified incubator with 10% CO2.
2 x 10^5 live cells/mL (100 µL per well) were seeded in a 96 well-plate under permissive conditions. After 24 h, cells were exposed to different concentrations of free Dx and Dx-loaded or unloaded NSAID-based NPs suspension (0.25, 0.125, 0.09, 0.045, 0.023 and, 0.011 mg/ml) and cell viability was determined after 24 h of incubation with NPs. AlamarBlue (Invitrogen) was used to determine cell viability. Absorbance at 570 nm was measured by a Multi-Detection Microplate Reader Synergy HT (BioTek Instruments; Vermont, USA). The treatments were done in replicates (n = 8). Results of the experiments were expressed as percentage of relative cell viability (% respect to the control).
(In general: Alamar Blue is a resazurin reagent that responds to reducing activity.)

Regarding `C[C@@H]1C[C@H]2[C@@H]3CCC4=CC(=O)C=C[C@]4(C)[C@@]3(F)[C@@H](O)C[C@]2(C)[C@@]1(O)C(=O)CO` [free Dx, Dexamethasone], the cell viability entry is recorded as “higher than 70%”.
